Measurements taken from US11938168B2, “Ophthalmic compositions and methods of use therefor” (Auckland Uniservices Limited, priority 2015, dated 2024).

What was measured:
[1] = system: keratocytes; assay: TGFβ3 and dexamethasone tested separately, collagen type II production; type: cell-based; settings: agents tested separately
[2] = system: mink lung epithelial (Mv1Lu) cells; settings: exemplary activity; cited from earlier work

| Compound | collagen type II production in keratocytes [1] | ED50, inhibition of Mv1Lu cell proliferation [2] |
| --- | --- | --- |
| C[C@@H]1C[C@H]2[C@@H]3CCC4=CC(=O)C=C[C@]4(C)[C@@]3(F)[C@@H](O)C[C@]2(C)[C@@]1(O)C(=O)CO [dexamethasone, reference compound] | no collagen type II production |  |
| TGFβ3: TGFβ3 polypeptide, SEQ ID NO:1; recombinant human TGFβ3 from commercial sources (Abcam, ab52313) | no collagen type II production | ≤ 0.05 mg/L |
